From patent publication US20260306453A1, “FORMULATIONS CONTAINING TRYPTAMINE DERIVATIVES AND USES THEREOF” (priority 2023, published 2026)
Like-named read-outs stand apart in the source and are kept apart here.

Key:
mice [1] = experiment: In vivo mouse head-twitch response
5-HT2B [2] = target: T1, 5-HT2B (Homo sapiens, UniProt P41595); experiment: Radioligand binding in vitro assay, 5-HT2B
5-HT1D = 5-HT1D (Homo sapiens, UniProt P28221); experiment: Radioligand binding in vitro assay, 5-HT1D
5-HT1E = 5-HT1E (Homo sapiens, UniProt P28566); experiment: Radioligand binding in vitro assay, 5-HT1E
5-HT1B = 5-HT1B (Homo sapiens, UniProt P28222); experiment: Radioligand binding in vitro assay, 5-HT1B
mice [3] = experiment: 2-day Porsolt Forced-Swim Test; assay type: in vivo; settings: Mus musculus, ip, both days, read-out: Porsolt Forced Swim (Both Days), minimum effective dose
Excerpt: The 2-day Porsolt Forced-Swim Test is a preclinical assay that tests for antidepressant effects in mice. […] Day 2 behavior is more likely to assess learning and memory with shorter swim times indicative of learning to be rescued.

mice [4] = experiment: Elevated plus maze
5-HT6 [5] = target: T2, 5-HT6 (Homo sapiens, UniProt P50406); experiment: Radioligand binding in vitro assay, 5-HT6
5-HT2C [6] = target: T3, 5-HT2C (Homo sapiens, UniProt P28335); experiment: biochemical; settings: radioligand binding
Sigma 2 = Sigma 2 (Homo sapiens, UniProt Q5BJF2); experiment: Radioligand binding in vitro assay, Sigma 2
5-HT7A [7] = target: T4, 5-HT7A (Homo sapiens, UniProt P34969); experiment: Radioligand binding in vitro assay, 5-HT7A
Sigma 1 = Sigma 1 (Homo sapiens, UniProt Q99720); experiment: Radioligand binding in vitro assay, Sigma 1
5-HT2C [8] = target: T3, 5-HT2C; experiment: biochemical; settings: agonism
5-HT6 [9] = target: T2, 5-HT6; experiment: In vitro functional activity, 5-HT6; assay type: biochemical; settings: agonism
Excerpt: (§1) The functional activity considers agonism vs. antagonism. […] Each of these receptors affects mental health, learning, memory, and more specifically, 5-HT6 is responsible for precognitive effects and neuronal connections, growth, and migration.

5-HT7A [10] = target: T4, 5-HT7A; experiment: In vitro functional activity, 5-HT7A; assay type: biochemical; settings: agonism; inverse agonism at 5-HT7A
Excerpt: as §1

5-HT2A [11] = target: T5, 5-HT2A (Homo sapiens, UniProt P28223); experiment: In vitro functional activity, 5-HT2A; assay type: biochemical; settings: agonism
5-HT1A = 5-HT1A (Homo sapiens, UniProt P08908); experiment: Radioligand binding in vitro assay, 5-HT1A
5-HT2A [12] = target: T5, 5-HT2A; experiment: biochemical; settings: radioligand binding
5-HT5A = 5-HT5A (Homo sapiens, UniProt P47898); experiment: Radioligand binding in vitro assay, 5-HT5A
5-HT2B [13] = target: T1, 5-HT2B; experiment: In vitro functional activity, 5-HT2B; assay type: biochemical; settings: agonism
Excerpt: as §1

mice [14] = experiment: Fear extinction and conditioning; assay type: in vivo, mouse
Excerpt: The fear extinction and conditioning model is a preclinical assay that performs a stimulus and tests response time and recognition of the stimulus. This translational model can correlate to anxiety, PTSD, memory, and precognitive effects to the positive control (4-AcO-DMT).

[15] = rat, in vivo
in vivo = settings: rat, 3 mg/kg
[16] = Rat pharmacodynamics (hypothermia) of intranasal DMT; settings: in vivo
[17] = assay type: in vivo; settings: rat; oral or IV administration; within minutes
Description: The rat PK (FIG. 6) was assessed with an oral dose of 10 mg/kg and intravenously at 1 mg/kg. […] The PK and brain concentrations were assessed in cohorts of 3 […] for each dosing group and between the plasma vs brain concentrations. For 10 mg/kg oral dosing, the PK parameters are outlined in Table 16 below.
1 mg/kg IV dosing, the PK parameters are outlined in Table 17.

[18] = radioligand binding, read-out: Ki 5-HT1D
[19] = radioligand binding, read-out: Ki 5-HT1E
[20] = radioligand binding, read-out: Ki 5-HT1B
[21] = radioligand binding, read-out: Ki Sigma 2
[22] = radioligand binding, read-out: Ki Sigma 1
[23] = radioligand binding, read-out: Ki 5-HT5A

Chain of 5-HT5A (P47898 whole entry): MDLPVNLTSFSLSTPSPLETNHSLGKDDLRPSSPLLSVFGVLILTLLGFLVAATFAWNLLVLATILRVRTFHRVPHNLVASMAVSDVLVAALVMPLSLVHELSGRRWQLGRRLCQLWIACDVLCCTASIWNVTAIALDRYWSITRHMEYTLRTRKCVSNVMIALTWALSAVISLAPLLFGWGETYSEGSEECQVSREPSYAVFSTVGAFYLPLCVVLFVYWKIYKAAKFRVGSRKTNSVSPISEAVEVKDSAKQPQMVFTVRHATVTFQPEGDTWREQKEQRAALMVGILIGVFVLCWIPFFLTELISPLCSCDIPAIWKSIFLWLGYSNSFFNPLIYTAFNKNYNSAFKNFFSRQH
T4 sequence (P34969 other isoform, or with tags, fused parts or gaps): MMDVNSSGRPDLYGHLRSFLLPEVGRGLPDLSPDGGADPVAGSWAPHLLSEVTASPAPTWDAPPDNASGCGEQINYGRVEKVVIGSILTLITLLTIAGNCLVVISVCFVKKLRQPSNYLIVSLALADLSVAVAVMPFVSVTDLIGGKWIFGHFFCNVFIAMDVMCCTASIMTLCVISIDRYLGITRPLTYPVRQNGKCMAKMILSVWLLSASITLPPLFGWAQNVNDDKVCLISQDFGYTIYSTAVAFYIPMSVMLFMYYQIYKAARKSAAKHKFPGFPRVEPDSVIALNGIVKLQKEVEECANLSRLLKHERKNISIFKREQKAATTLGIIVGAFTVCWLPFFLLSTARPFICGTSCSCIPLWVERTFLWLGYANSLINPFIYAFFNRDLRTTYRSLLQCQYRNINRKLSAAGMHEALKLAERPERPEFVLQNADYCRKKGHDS
Chain of Sigma 2 (Q5BJF2 whole entry): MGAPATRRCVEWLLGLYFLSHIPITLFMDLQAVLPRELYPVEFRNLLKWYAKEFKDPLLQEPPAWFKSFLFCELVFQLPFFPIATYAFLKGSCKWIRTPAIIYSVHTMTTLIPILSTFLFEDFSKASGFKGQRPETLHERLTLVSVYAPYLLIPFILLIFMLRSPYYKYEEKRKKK
T5 sequence (P28223 whole entry): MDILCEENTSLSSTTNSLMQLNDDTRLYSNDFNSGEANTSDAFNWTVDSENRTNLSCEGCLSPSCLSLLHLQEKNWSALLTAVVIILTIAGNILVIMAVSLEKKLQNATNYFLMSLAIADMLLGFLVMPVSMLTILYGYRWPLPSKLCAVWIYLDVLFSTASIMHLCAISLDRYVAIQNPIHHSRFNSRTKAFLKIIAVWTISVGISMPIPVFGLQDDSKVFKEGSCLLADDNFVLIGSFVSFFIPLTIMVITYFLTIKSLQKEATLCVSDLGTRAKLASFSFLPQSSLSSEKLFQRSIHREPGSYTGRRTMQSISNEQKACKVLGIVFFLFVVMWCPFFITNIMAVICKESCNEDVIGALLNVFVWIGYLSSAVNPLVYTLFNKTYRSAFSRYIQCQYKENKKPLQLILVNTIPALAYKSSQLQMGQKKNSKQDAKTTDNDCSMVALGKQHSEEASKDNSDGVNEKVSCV
Chain of Sigma 1 (Q99720 whole entry): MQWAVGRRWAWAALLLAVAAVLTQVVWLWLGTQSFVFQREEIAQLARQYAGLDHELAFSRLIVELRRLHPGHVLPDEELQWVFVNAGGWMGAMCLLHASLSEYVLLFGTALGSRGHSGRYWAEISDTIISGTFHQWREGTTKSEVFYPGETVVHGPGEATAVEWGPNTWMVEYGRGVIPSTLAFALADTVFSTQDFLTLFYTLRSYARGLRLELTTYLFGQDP
T1 sequence (P41595 whole entry): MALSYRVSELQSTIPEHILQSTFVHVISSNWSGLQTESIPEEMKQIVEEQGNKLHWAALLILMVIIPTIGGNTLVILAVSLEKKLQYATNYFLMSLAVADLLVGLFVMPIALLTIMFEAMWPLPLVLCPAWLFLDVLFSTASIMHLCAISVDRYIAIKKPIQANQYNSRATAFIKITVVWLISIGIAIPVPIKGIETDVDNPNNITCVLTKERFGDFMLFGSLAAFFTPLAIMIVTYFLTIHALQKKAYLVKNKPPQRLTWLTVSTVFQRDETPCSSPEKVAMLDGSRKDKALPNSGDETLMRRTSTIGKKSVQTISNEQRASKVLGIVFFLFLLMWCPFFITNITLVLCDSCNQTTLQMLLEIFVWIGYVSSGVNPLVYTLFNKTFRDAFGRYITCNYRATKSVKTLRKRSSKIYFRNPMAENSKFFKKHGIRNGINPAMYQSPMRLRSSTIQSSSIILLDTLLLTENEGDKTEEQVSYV
Chain of 5-HT1B (P28222 whole entry): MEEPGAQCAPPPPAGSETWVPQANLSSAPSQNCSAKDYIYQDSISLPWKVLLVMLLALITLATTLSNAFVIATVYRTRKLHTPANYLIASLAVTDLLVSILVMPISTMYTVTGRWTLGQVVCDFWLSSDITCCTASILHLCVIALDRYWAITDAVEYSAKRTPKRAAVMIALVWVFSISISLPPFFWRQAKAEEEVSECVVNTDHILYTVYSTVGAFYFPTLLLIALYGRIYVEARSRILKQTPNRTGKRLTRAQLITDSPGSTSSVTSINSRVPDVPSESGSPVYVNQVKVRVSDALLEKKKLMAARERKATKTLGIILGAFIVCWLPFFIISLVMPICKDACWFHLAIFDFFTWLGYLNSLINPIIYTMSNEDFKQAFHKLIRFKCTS
T3 sequence (P28335 33-458): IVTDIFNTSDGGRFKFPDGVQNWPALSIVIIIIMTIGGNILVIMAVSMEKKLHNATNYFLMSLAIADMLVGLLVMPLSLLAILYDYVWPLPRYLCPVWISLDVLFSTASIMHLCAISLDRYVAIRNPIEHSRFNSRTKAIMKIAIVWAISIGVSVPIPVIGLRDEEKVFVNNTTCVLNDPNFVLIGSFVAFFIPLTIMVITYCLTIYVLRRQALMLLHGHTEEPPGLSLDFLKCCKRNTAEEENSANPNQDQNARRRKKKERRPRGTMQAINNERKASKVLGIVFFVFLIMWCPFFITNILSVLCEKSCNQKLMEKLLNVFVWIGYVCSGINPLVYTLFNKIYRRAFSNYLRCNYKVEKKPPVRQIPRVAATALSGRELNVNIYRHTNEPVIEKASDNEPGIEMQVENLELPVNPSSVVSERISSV
T2 sequence (P50406 whole entry): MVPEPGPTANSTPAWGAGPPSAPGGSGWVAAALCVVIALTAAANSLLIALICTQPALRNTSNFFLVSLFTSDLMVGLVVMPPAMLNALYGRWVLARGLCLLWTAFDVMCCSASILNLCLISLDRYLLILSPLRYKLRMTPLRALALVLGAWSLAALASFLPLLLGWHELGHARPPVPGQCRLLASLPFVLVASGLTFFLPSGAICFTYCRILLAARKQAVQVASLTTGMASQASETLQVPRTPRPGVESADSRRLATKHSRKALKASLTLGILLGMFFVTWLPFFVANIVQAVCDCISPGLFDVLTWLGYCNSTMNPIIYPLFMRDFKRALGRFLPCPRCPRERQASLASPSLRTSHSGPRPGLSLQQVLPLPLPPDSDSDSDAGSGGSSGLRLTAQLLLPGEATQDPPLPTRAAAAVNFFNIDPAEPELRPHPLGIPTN
Chain of 5-HT1D (P28221 whole entry): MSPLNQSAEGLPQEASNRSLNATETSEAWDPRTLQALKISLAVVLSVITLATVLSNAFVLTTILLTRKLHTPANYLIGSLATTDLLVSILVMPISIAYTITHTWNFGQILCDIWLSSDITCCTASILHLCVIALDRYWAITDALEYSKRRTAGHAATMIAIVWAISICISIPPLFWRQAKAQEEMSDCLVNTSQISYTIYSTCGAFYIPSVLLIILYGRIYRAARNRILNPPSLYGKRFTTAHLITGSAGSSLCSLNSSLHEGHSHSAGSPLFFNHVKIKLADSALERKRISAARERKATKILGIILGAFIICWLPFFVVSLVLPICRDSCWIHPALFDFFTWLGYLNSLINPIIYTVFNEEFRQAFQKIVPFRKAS
Chain of 5-HT1E (P28566 whole entry): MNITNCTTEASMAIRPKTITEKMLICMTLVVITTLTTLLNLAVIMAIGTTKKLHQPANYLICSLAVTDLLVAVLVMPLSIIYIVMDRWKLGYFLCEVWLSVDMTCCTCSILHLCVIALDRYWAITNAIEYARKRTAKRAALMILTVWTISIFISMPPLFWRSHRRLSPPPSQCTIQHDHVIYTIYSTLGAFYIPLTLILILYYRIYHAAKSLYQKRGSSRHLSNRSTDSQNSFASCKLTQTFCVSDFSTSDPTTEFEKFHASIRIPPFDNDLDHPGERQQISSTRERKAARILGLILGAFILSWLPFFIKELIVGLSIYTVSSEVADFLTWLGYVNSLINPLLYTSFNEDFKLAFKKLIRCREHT
Chain of 5-HT1A (P08908 whole entry): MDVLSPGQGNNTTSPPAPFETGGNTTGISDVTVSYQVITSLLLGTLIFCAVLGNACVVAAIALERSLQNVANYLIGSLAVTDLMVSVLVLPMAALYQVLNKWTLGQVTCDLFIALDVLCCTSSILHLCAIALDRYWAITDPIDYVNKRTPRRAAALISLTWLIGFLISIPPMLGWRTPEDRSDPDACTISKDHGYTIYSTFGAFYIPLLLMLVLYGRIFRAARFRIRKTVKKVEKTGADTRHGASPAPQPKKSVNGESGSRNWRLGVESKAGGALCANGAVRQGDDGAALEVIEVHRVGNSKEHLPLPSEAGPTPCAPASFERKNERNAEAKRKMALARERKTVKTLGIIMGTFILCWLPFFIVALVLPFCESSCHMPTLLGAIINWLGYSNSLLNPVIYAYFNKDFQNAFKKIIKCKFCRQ

## CC(=O)Nc1cccc2[nH]cc(CCN(C)C)c12 [drawing 26]
Mice [1]
  Head Twitch Response Results: No Head Twitch up to 50 mg/kg

## CC(=O)Oc1cccc2[nH]c(Br)c(CCN(C)C)c12 [drawing 5]
5-HT2B [2]
  Ki: 67.7 nM
5-HT1D; [18]
  Ki: > 10000 nM
5-HT1E; [19]
  Ki: > 10 µM
5-HT1B; [20]
  Ki: > 10 µM

## CN(C)CCc1c(Cl)[nH]c2ccccc12 [drawing 28]
Mice [3]
  minimal effective dose: 25 mg/kg

## CN(C)CCc1c(Cl)[nH]c2ccccc12 [drawing 21]
Mice [1]
  Head Twitch Response Results: No Head Twitch up to 100 mg/kg

## CC(C)N(CCc1c(Br)[nH]c2ccccc12)C(C)C [drawing 32]
Mice [4]
  Elevated Plus Maze, effective dose range: 25 mg/kg

## CN(C)CCc1c[nH]c2cccc(NS(C)(=O)=O)c12 [drawing 14]
5-HT6 [5]; radioligand binding
  Ki: > 10000 nM
5-HT2C [6]
  Ki: > 10000 nM
Sigma 2; [21]
  Ki: > 10000 nM
5-HT7A [7]; radioligand binding
  Ki: 930 nM
Sigma 1; [22]
  Ki: > 10000 nM

## CC(C)N(CCc1c(Br)[nH]c2ccccc12)C(C)C [drawing 30]
Mice [3]
  minimal effective dose: 10 mg/kg

## CN(C)CCc1c[nH]c2cccc(NS(C)(=O)=O)c12 [drawing 33]
Mice [4]
  Elevated Plus Maze, effective dose range: 25 mg/kg

## CN(C)CCc1c(Cl)[nH]c2ccccc12 [drawing 17]
5-HT2C [8]
  EC50: 4.48 µM
5-HT6 [9]
  EC50: 9 nM
5-HT7A [10]
  EC50: 630 nM
5-HT2A [11]
  EC50: 202 nM

## CC(=O)Oc1cccc2[nH]cc(CCN(C)C)c12 [drawing 11]
Sigma 2; [21]
  Ki: > 10000 nM
5-HT7A [7]; radioligand binding
  Ki: 59.6 nM
Sigma 1; [22]
  Ki: > 10000 nM

## CN(C)CCc1c[nH]c2cccc(NS(C)(=O)=O)c12 [drawing 7]
5-HT2B [2]
  Ki: 1900 nM
5-HT1A
  Ki: 2900 nM
5-HT2A [12]
  Ki: > 10 µM

## CC(=O)Nc1cccc2[nH]cc(CCN(C)C)c12 [drawing 8]
5-HT2B [2]
  Ki: 700 nM
5-HT1A
  Ki: 570 nM
5-HT2A [12]
  Ki: 3.4 µM

## CC(=O)Oc1cccc2[nH]cc(CCN(C)C)c12 [drawing 4]
5-HT2B [2]
  Ki: 11.6 nM

## CC(C)N(CCc1c(Br)[nH]c2ccccc12)C(C)C [drawing 13]
5-HT6 [5]; radioligand binding
  Ki: 407 nM
5-HT2C [6]
  Ki: > 10000 nM
Sigma 2; [21]
  Ki: 483 nM
5-HT7A [7]; radioligand binding
  Ki: 4930 nM
5-HT5A; [23]
  Ki: > 10000 nM
Sigma 1; [22]
  Ki: 257 nM

## CC(C)N(CCc1c(Br)[nH]c2ccccc12)C(C)C [drawing 6]
5-HT2B [2]
  Ki: 45.2 nM
5-HT1D; [18]
  Ki: 1070 nM
5-HT1E; [19]
  Ki: > 10 µM
5-HT1B; [20]
  Ki: > 10 µM

## CN(C)CCc1c(Br)[nH]c2ccccc12 [drawing 16]
5-HT2B [13]
  EC50: 799 nM
5-HT6 [9]
  EC50: 7 nM
5-HT7A [10]
  EC50: 225 nM
5-HT2A [11]
  EC50: > 10000 nM

## CC(=O)Oc1cccc2[nH]c(Br)c(CCN(C)C)c12 [drawing 35]
Mice [14]
  Fear Extinction and Conditioning, effective dose range: 5 to 25 mg/kg

## CN(C)CCc1c(Br)[nH]c2ccccc12 [drawing 2]
5-HT2B [2]
  Ki: 222 nM
5-HT1A
  Ki: > 10000 nM
5-HT1D; [18]
  Ki: > 10000 nM
5-HT1E; [19]
  Ki: > 10 µM
5-HT2A [12]
  Ki: 0.417 µM
5-HT1B; [20]
  Ki: > 10 µM

## CN(C)CCc1c(Cl)[nH]c2ccccc12 [drawing 10]
5-HT6 [5]; radioligand binding
  Ki: 62 nM
5-HT2C [6]
  Ki: 120 nM
Sigma 2; [21]
  Ki: > 10000 nM
5-HT7A [7]; radioligand binding
  Ki: 178 nM
5-HT5A; [23]
  Ki: 3000 nM
Sigma 1; [22]
  Ki: 638 nM

## CC(=O)Nc1cccc2[nH]cc(CCN(C)C)c12 [drawing 15]
5-HT6 [5]; radioligand binding
  Ki: > 10000 nM
5-HT2C [6]
  Ki: 1000 nM
Sigma 2; [21]
  Ki: > 10000 nM
5-HT7A [7]; radioligand binding
  Ki: 290 nM
Sigma 1; [22]
  Ki: > 10000 nM

## CC(=O)Oc1cccc2[nH]c(Br)c(CCN(C)C)c12 [drawing 18]
5-HT2C [8]
  EC50: 0.864 µM
5-HT6 [9]
  EC50: 8 nM
5-HT7A [10]
  EC50: 917 nM

## CC(C)N(CCc1c(Br)[nH]c2ccccc12)C(C)C [drawing 19]
5-HT2B [13]
  EC50: 18 nM
5-HT2C [8]
  EC50: > 10 µM
5-HT6 [9]
  EC50: 186 nM
5-HT7A [10]
  EC50: 5870 nM
5-HT2A [11]
  EC50: 2130 nM

## CC(=O)Oc1cccc2[nH]c(Br)c(CCN(C)C)c12 [drawing 29]
Mice [3]
  minimal effective dose: 5 mg/kg

## CN(C)CCc1c[nH]c2ccccc12 [N,N-dimethyltryptamine, reference compound]
5-HT6 [5]
  Ki: 134 nM
Sigma 2
  Ki: 777 nM
[15]
  tmax (maximal effects): 10 min
5-HT1D
  Ki: 42.2 nM
5-HT1E
  Ki: 0.104 µM
5-HT7A [7]
  Ki: 15.2 nM
5-HT5A
  Ki: 155 nM
In vivo
  Cmax: 60 ng/mL
5-HT1B
  Ki: 0.557 µM
Sigma 1
  Ki: 230 nM
[16]
  hypothermia: dose-dependent hypothermia

## CC(C)N(CCc1c(Br)[nH]c2ccccc12)C(C)C [drawing 36]
Mice [14]
  Fear Extinction and Conditioning, effective dose range: 1 to 10 mg/kg

## CN(C)CCc1c(Br)[nH]c2ccccc12 [drawing 27]
Mice [3]
  minimal effective dose: 1 to 10 mg/kg

## Br.CN(C)CCc1c(Br)[nH]c2ccccc12 [2-Br-4-AcO-DMT*HBr, 2-(2-bromo-1H-indol-3-yl)-N,N-dimethylethan-1-amine hydrobromide salt]
[17]
  metabolism via deacetylation into 2-Br-4-OH-DMT: rapidly metabolized via deacetylation into an active metabolite

## CC(=O)Oc1cccc2[nH]c(Br)c(CCN(C)C)c12 [drawing 12]
5-HT6 [5]; radioligand binding
  Ki: 70.7 nM
5-HT2C [6]
  Ki: 1220 nM
Sigma 2; [21]
  Ki: > 10000 nM
5-HT7A [7]; radioligand binding
  Ki: 396 nM
5-HT5A; [23]
  Ki: 894 nM
Sigma 1; [22]
  Ki: > 10000 nM

## CN(C)CCc1c[nH]c2cccc(NS(C)(=O)=O)c12 [drawing 25]
Mice [1]
  Head Twitch Response Results: No Head Twitch up to 25 mg/kg

## CN(C)CCc1c(Br)[nH]c2ccccc12 [drawing 34]
Mice [14]
  Fear Extinction and Conditioning, effective dose range: 1 to 10 mg/kg

## CC(C)N(CCc1c(Br)[nH]c2ccccc12)C(C)C [drawing 24]
Mice [1]
  Head Twitch Response Results: No Head Twitch up to 25 mg/kg

## CC(=O)Oc1cccc2[nH]cc(CCN(C)C)c12 [drawing 22, reference compound]
Mice [1]
  Head Twitch Response Results: Positive Control causes head twitch at 20 mg/kg

## CN(C)CCc1c(Br)[nH]c2ccccc12 [drawing 20]
Mice [1]
  Head Twitch Response Results: No Head Twitch up to 50 mg/kg

## CN(C)CCc1c(Br)[nH]c2ccccc12 [drawing 9]
Sigma 2; [21]
  Ki: 2460 nM
5-HT7A [7]; radioligand binding
  Ki: 137 nM
5-HT5A; [23]
  Ki: 1520 nM
Sigma 1; [22]
  Ki: 239 nM

## CN(C)CCc1c(Cl)[nH]c2ccccc12 [drawing 3]
5-HT2B [2]
  Ki: 191 nM
5-HT1D; [18]
  Ki: > 10000 nM
5-HT1E; [19]
  Ki: 3.91 µM
5-HT1B; [20]
  Ki: > 10 µM

## CC(=O)Oc1cccc2[nH]c(Br)c(CCN(C)C)c12 [drawing 31]
Mice [4]
  Elevated Plus Maze, effective dose range: 5 to 10 mg/kg

## CC(=O)Oc1cccc2[nH]c(Br)c(CCN(C)C)c12 [drawing 23]
Mice [1]
  Head Twitch Response Results: No Head Twitch up to 50 mg/kg
